Test results: US10413504B2, “Intravaginal ring drug delivery system” (Merck Sharp & Dohme B.V., priority 2013, dated 2019)

Test: ENG and E2 solubility, diffusion coefficient and permeability in EVA copolymers (two-layer polymer slab, fit with Fick's 2nd law)
Details: ENG
Procedure: For the determination of the solubility concentration and diffusion coefficient a method was developed. The method consists in preparing polymer slab composites with one layer highly loaded with active ingredient (60 wt %) on top of a layer of placebo polymer. The two layers were first pressed separately in a hot press and thereafter combined, also using the press, into a two layer structure. The diffusion of the active ingredient from the loaded layer through the placebo layer is measured in time, for the active ingredient/polymer combination adequate analysis method. Thereafter the experimental diffusion data is fitted with a mathematical model based on Fick's 2nd law of diffusion in one direction. The differential equation is solved using trigonometrical series with the solubility concentration and diffusion coefficient as only unknown variables.

- Cs (solubility in EVA copolymer) (VA % 9): 0.4 mg/g
- D (diffusion coefficient in EVA copolymer) (VA % 9): 2.29 ×10^−13 m^2/s
- Cs (solubility in EVA copolymer) (VA % 15): 0.9 mg/g
- D (diffusion coefficient in EVA copolymer) (VA % 15): 3.17 ×10^−13 m^2/s
- Cs (solubility in EVA copolymer) (VA % 28): 3.22 mg/g
- D (diffusion coefficient in EVA copolymer) (VA % 28): 4.80 ×10^−13 m^2/s
Compound: C#C[C@]1(O)CC[C@H]2[C@@H]3CCC4=CC(=O)CC[C@@H]4[C@H]3C(=C)C[C@@]21CC [ENG, etonogestrel]
